Measurements as given in ChEMBL document CHEMBL3352089 (J Med Chem, 2014).

Tests used:
[1] = Cytotoxicity against human HepG2 cells assessed as cell viability at 1 uM after 4 hrs by Cell-Titer Glo assay; type: cell-based; conditions: read-out: Activity
[2] = Cytotoxicity against human HepG2 cells assessed as cell viability at 10 uM after 4 hrs by Cell-Titer Glo assay; type: cell-based; conditions: read-out: Activity
[3] = Cytotoxicity against human HepG2 cells assessed as cell viability at 100 uM after 4 hrs by Cell-Titer Glo assay; type: cell-based; conditions: read-out: Activity
[4] = Cytotoxicity against human HepG2 cells assessed as cell viability at 1 uM after 24 hrs by Cell-Titer Glo assay; type: cell-based; conditions: read-out: Activity
[5] = Cytotoxicity against human HepG2 cells assessed as cell viability at 10 uM after 24 hrs by Cell-Titer Glo assay; type: cell-based; conditions: read-out: Activity
[6] = Cytotoxicity against human HepG2 cells assessed as cell viability at 100 uM after 24 hrs by Cell-Titer Glo assay; type: cell-based; conditions: read-out: Activity
[7] = test system: T1, Activin receptor type-1 (Homo sapiens), Q04771 [Q207D]
T1 sequence (whole entry): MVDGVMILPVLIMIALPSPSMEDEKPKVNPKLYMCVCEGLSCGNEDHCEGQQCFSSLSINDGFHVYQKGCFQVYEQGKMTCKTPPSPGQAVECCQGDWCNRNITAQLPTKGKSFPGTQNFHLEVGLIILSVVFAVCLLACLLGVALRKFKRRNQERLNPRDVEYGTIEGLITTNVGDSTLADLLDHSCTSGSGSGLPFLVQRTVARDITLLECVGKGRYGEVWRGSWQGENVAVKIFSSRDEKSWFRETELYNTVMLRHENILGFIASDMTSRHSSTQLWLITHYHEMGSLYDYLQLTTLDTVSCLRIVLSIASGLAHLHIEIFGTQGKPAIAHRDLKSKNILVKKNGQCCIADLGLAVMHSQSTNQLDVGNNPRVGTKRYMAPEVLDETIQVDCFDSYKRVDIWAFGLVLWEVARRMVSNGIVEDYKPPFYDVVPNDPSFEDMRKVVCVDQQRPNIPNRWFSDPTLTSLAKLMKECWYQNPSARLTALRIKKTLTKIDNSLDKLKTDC

[8] = target: T2, TGF-beta receptor type-1 (Homo sapiens) (UniProt P36897)
T2 sequence (whole entry): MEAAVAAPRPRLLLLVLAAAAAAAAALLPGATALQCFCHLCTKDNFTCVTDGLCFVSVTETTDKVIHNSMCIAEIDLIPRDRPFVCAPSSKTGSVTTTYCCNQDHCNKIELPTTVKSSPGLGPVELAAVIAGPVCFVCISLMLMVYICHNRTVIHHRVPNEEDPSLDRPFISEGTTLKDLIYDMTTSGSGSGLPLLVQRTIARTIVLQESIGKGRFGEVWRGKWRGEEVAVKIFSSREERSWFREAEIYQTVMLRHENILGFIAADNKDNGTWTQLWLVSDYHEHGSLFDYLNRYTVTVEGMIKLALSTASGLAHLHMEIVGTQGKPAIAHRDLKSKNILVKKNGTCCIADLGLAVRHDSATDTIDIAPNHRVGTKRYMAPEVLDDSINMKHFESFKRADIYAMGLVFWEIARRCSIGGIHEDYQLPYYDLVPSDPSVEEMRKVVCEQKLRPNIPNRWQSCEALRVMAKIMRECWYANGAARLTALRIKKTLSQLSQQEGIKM
Description: Inhibition of purified ALK5 kinase (unknown origin) by RT-PCR analysis

Compound	viability at 4 h, 1 µM [1]	viability at 4 h, 10 µM [2]	viability at 4 h, 100 µM [3]	viability at 24 h, 1 µM [4]	viability at 24 h, 10 µM [5]	viability at 24 h, 100 µM [6]	ΔTm [7]	ΔTm [8]
CS(=O)(=O)CCNCc1ccc(-c2ccc3ncnc(Nc4ccc(OCc5cccc(F)c5)c(Cl)c4)c3c2)o1 [LAPATINIB]	> 75%	> 75%	> 75%	> 75%	> 75%	> 75%	–	–
COc1cc(-c2cc(-c3ccc(O)cc3)cnc2N)cc(OC)c1OC	> 75%	> 75%	> 75%	> 75%	> 75%	> 75%	–	–
COc1cc(-c2cnc(N)c(-c3cc(OC)c(OC)c(OC)c3)c2)ccc1O	> 75%	> 75%	> 75%	> 75%	> 75%	> 75%	–	–
COc1cc(-c2cncc(-c3ccc(N4CCNCC4)cc3)c2)cc(OC)c1OC	> 75%	> 75%	–	> 75%	> 75%	–	14.1 °C	10.4 °C
COc1cc2ncnc(Nc3ccc(F)c(Cl)c3)c2cc1OCCCN1CCOCC1 [GEFITINIB]	> 75%	> 75%	> 75%	> 75%	> 75%	> 75%	–	–
C#Cc1cccc(Nc2ncnc3cc(OCCOC)c(OCCOC)cc23)c1 [ERLOTINIB]	> 75%	> 75%	> 75%	> 75%	> 75%	> 75%	–	–
Cc1cn(-c2cc(NC(=O)c3ccc(C)c(Nc4nccc(-c5cccnc5)n4)c3)cc(C(F)(F)F)c2)cn1 [NILOTINIB]	> 75%	> 75%	> 75%	> 75%	> 75%	> 75%	–	–
CCCS(=O)(=O)Nc1ccc(F)c(C(=O)c2c[nH]c3ncc(-c4ccc(Cl)cc4)cc23)c1F [VEMURAFENIB]	> 75%	> 75%	> 75%	> 75%	> 75%	–	–	–
COc1cc(-c2cc(-c3cccc(NS(C)(=O)=O)c3)cnc2N)cc(OC)c1OC	> 75%	> 75%	> 75%	> 75%	> 75%	> 75%	–	–
COc1cc(-c2cc(-c3ccc(N4CCNCC4)cc3)cnc2N)cc(OC)c1OC	> 75%	> 75%	> 75%	> 75%	> 75%	–	15.1 °C	13.9 °C
c1cc(-c2cnn3cc(-c4ccc(N5CCNCC5)cc4)cnc23)c2cccnc2c1	> 75%	> 75%	> 75%	> 75%	> 75%	–	–	–
N#CC[C@H](C1CCCC1)n1cc(-c2ncnc3[nH]ccc23)cn1 [RUXOLITINIB]	> 75%	> 75%	> 75%	> 75%	> 75%	–	–	–
Nc1ncc(-c2ccc(N3CCNCC3)cc2)cc1-c1ccnc2ccccc12	> 75%	> 75%	> 75%	> 75%	> 75%	–	–	–
COc1cc(-c2cc(-c3ccc(N4CCNCC4)cc3)cnc2Cl)cc(OC)c1OC	> 75%	> 75%	> 75%	> 75%	> 75%	–	–	–
Cc1ccc(Nc2nccc(N(C)c3ccc4c(C)n(C)nc4c3)n2)cc1S(N)(=O)=O [PAZOPANIB]	> 75%	> 75%	> 75%	> 75%	> 75%	> 75%	–	–
COc1cc(-c2cc(-c3ccc(N4CCNCC4)cc3)cnc2C)cc(OC)c1OC	> 75%	> 75%	> 75%	> 75%	> 75%	> 75%	13.7 °C	9.7 °C
COc1cc(-c2cc(-c3ccc(N4CCNCC4)cc3)cnc2N(C)C)cc(OC)c1OC	> 75%	> 75%	> 75%	> 75%	> 75%	–	–	–
COc1cc(-c2cc(-c3cccc(O)c3)cnc2N)cc(OC)c1OC	> 75%	> 75%	> 75%	> 75%	> 75%	–	13.2 °C	–
COc1ccc(-c2cc(-c3ccc(N4CCNCC4)cc3)cnc2N)cc1OC	> 75%	> 75%	> 75%	> 75%	> 75%	–	–	–
